Earlier results, collected in publication PMC9301952 (ACS Omega, 2022).

Test system: mouse
Details: behavioral assay used to predict psychedelic drug activity

| SMILES | activity in the mouse head twitch assay |
| --- | --- |
| CNCCc1c[nH]c2cccc(OP(=O)(O)O)c12 [baeocystin, 4-phosphoryloxy-N-methyltryptamine] | neither compound is active |
| CNCCc1c[nH]c2cccc(O)c12 [norpsilocin, 4-hydroxy-N-methyltryptamine] | neither compound is active |
